Experimental data reported in patent US20250026759A1 (Merck Sharp & Dohme LLC, priority 2023, published 2025).
pEC50: −log10 of the molar value.

Each compound was assayed on PBMCs infected with VSV-G pseudotyped HIV virus (VSV-G/pNLG1-P2A-ΔEnv) (assay: cells). Conditions: Homo sapiens, PBMC, read-out: TACK EC50.
Format: cell-based, human

Row | SMILES | pEC50
1 | O=C1Nc2cc(Cc3[nH]nc4ccccc34)c(F)cc2[C@@](C#CC2CC2)(C(F)(F)F)N1 [Example 119, (S)-7-((2H-indazol-3-yl)methyl)-4-(cyclopropylethynyl)-6-fluoro-4-(trifluoromethyl)-3,4-dihydroquinazolin-2(1H)-one] | 7.24
2 | CC(F)(F)[C@@]1(C#CC2CC2)NC(=O)Nc2cc(Cn3ccc(S(N)(=O)=O)n3)c(F)cc21 [Example 120, (S)-1-((4-(cyclopropylethynyl)-4-(1,1-difluoroethyl)-6-fluoro-2-oxo-1,2,3,4-tetrahydroquinazolin-7-yl)methyl)-1H-pyrazole-3-sulfonamide] | 7.21
3 | CC(F)(F)[C@@]1(C#CC2CC2)NC(=O)Nc2cc(Cn3cc(C(F)F)cn3)c(F)cc21 [Example 121, (S)-4-(cyclopropylethynyl)-4-(1,1-difluoroethyl)-7-((4-(difluoromethyl)-1H-pyrazol-1-yl)methyl)-6-fluoro-3,4-dihydroquinazolin-2(1H)-one] | 7.17
4 | Cn1cnn(Cc2cc3c(cc2F)[C@@](C#CC2CC2)(C(C)(F)F)NC(=O)N3)c1=O [Example 122, (S)-4-(cyclopropylethynyl)-4-(1,1-difluoroethyl)-6-fluoro-7-((4-methyl-5-oxo-4,5-dihydro-1H-1,2,4-triazol-1-yl)methyl)-3,4-dihydroquinazolin-2(1H)-one] | 7.13
5 | COc1cnn(Cc2cc3c(cc2Cl)[C@@](C#CC2CC2)(C(F)(F)F)NC(=O)N3)c1 [Example 123, (S)-6-chloro-4-(cyclopropylethynyl)-7-((4-methoxy-1H-pyrazol-1-yl)methyl)-4-(trifluoromethyl)-3,4-dihydroquinazolin-2(1H)-one] | 7.10
6 | CN(C)Cc1ccn(Cc2cc3c(cc2F)[C@@](C#CC2CC2)(C(C)(F)F)NC(=O)N3)n1 [Example 126, (S)-4-(cyclopropylethynyl)-4-(1,1-difluoroethyl)-7-((3-((dimethylamino)methyl)-1H-pyrazol-1-yl)methyl)-6-fluoro-3,4-dihydroquinazolin-2(1H)-one] | 6.99
7 | Cc1ccn(Cc2ccc3c(c2)NC(=O)N[C@]3(C#CC2CC2)C(F)(F)F)n1 [Example 127, (S)-4-(cyclopropylethynyl)-7-((3-methyl-1H-pyrazol-1-yl)methyl)-4-(trifluoromethyl)-3,4-dihydroquinazolin-2(1H)-one] | 6.99
8 | Cc1nn(Cc2cc3c(cc2F)[C@@](C#CC2CC2)(C(C)(F)F)NC(=O)N3)c(=O)n1C [Example 128, (S)-4-(cyclopropylethynyl)-4-(1,1-difluoroethyl)-7-((3,4-dimethyl-5-oxo-4,5-dihydro-1H-1,2,4-triazol-1-yl)methyl)-6-fluoro-3,4-dihydroquinazolin-2(1H)-one] | 6.94
9 | CC(C)(O)c1ccn(Cc2cc3c(cc2F)[C@@](C#CC2CC2)(C(C)(F)F)NC(=O)N3)n1 [Example 129, (S)-4-(cyclopropylethynyl)-4-(1,1-difluoroethyl)-6-fluoro-7-((3-(2-hydroxypropan-2-yl)-1H-pyrazol-1-yl)methyl)-3,4-dihydroquinazolin-2(1H)-one] | 6.77
